Data: patent publication US20240287097A1, “COMPOUNDS AND METHODS FOR MODULATING SPLICING” (REMIX THERAPEUTICS INC., priority 2020, published 2024)

Assays:
Format in all cases: cell-based
[1] = test system: HTT mRNA, canonical junction (CJ); assay: Splicing RT-qPCR assay, HTT canonical junction (CJ) mRNA decrease; conditions: A673 or K562 cells, 24 hours compound treatment, 50% response in CJ decrease
Experimental: (§1) Compounds described herein were used to modulate RNA transcript abundance in cells. The expression of a target mRNA was measured by detecting the formation of an exon-exon junction in the canonical transcript (CJ). A compound mediated exon-inclusion event was detected by observing an increase in formation of a new junction with an alternative exon (AJ). Real-time qPCR assays were used to detect these splicing switches and interrogate the potency of various compounds towards different target genes. A high-throughput real time quantitative PCR (RT-qPCR) assay was developed to measure these two isoforms of the mRNA (CJ and AJ) for an exemplary gene, HTT, together with a control housekeeping gene, GAPDH or GUSB or PPIA, used for normalization. Briefly, the A673 or K562 cell line was treated with various compounds described herein (e.g., compounds of Formula (I)). After treatment, the levels of the HTT mRNA targets were determined from each sample of cell lysate by cDNA synthesis followed by qPCR.
(§2) • Cells-to-CT 1-step kit: ThermoFisher A25602, Cells-to-CT lysis reagent: ThermoFisher 4391851C, TagMan™ Fast Virus 1-Step Master Mix: ThermoFisher 4444436 • GAPDH: VIC-PL, ThermoFisher 4326317E (Assay: Hs99999905 m1)—used for K562/suspension cell lines • GUSB: VIC-PL, ThermoFisher 4326320E (Assay: Hs99999908 m1)—used for K562/suspension cell lines • PPIA: VIC-PL, ThermoFisher 4326316E (Assay: Hs99999904 m1)—used for A673/adherent cell lines
(§3) The A673 cell line was cultured in DMEM with 10% FBS. Cells were diluted with full growth media and plated in a 96-well plate (15,000 cells in 100 ul media per well). The plate was incubated at 37° C. with 5% CO2 for 24 hours to allow cells to adhere. An 11-point 3-fold serial dilution of the compounds was made in DMSO then diluted in media in an intermediate plate. Compounds were transferred from the intermediate plate to the cell plate with the top dose at a final concentration of 10 uM in the well. Final DMSO concentration was kept at or below 0.25%. The cell plate was returned to the incubator at 37° C. with 5% CO2 for an additional 24 hours.
(§4) The K562 cell line was cultured in IMDM with 10% FBS. For K562, cells were diluted with full growth media and plated in either a 96-well plate (50,000 cells in 50 uL media per well) or a 384-well plate (8,000-40,000 cells in 45 uL media per well). An 11-point 3-fold serial dilution of the compounds were made in DMSO then diluted in media in an intermediate plate. Compound was transferred from the intermediate plate to the cell plate with the top dose at a final concentration of 10 uM in the well. Final DMSO concentration was kept at or below 0.25%. Final volume was 100 uL for 96-well plate and 50 uL for 384-well plate. The cell plate was then placed in an incubator at 37° C. with 5% CO2 for 24 hours.
(§5) The cells were then gently washed with 50 uL-100 uL cold PBS before proceeding to addition of lysis buffer. 30 uL-50 uL of room temperature lysis buffer with DNAse I (and optionally RNAsin) was added to each well. Cells were shaken/mixed thoroughly at room temperature for 5-10 minutes for lysis to take place and then 3 uL-5 uL of room temperature stop solution was added and wells were shaken/mixed again. After 2-5 minutes, the cell lysate plate was transferred to ice for RT-qPCR reaction setup. The lysates could also be frozen at ˜80° C. for later use.
(§6) In some cases, a direct lysis buffer was used. An appropriate volume of 3×lysis buffer (10 mM Tris, 150 mM NaCl, 1.5%-2.5% Igepal and 0.1-1 U/uL RNAsin, pH 7.4) was directly added to either K562 or A673 cells in media and mixed by pipetting 3 times. The plates were then incubated at room temperature with shaking/rocking for 20-50 minutes to allow for lysis to take place. After this time, the cell lysate plate was transferred to ice to set up for the RT-qPCR reactions. The lysates could also be frozen at −80° C. for later use. […]

[2] = test system: HTT mRNA, alternative junction (AJ); assay: Splicing RT-qPCR assay, HTT alternative junction (AJ) mRNA increase; conditions: A673 or K562 cells, 24 hours compound treatment, 50% response in AJ increase
Experimental: as §1, §2, §3, §4, §5, §6

SMN2 CJ mRNA transcript = assay: Gene panel canonical junction qPCR assay, SMN2; conditions: 50% response in CJ decrease, read-out: SMN2 IC50 (decrease in CJ mRNA levels)
Experimental: as §1, §3, §4
(§7) The data analysis was performed by first determining the ΔCt vs the housekeeper gene. This ΔCt was then normalized against the DMSO control (ΔΔCt) and converted to RQ (relative quantification) using the 2^(−ΔΔCt) equation. The RQ were then converted to a percentage response by arbitrarily setting an assay window of 3.5 ΔCt for HTT-CJ and an assay window of 9 ΔCt for HTT-AJ. […] The percentage response was then fitted to the 4 parametric logistic equation to evaluate the concentration dependence of compound treatment. The increase in AJ mRNA is reported as AC50 (compound concentration having 50% response in AJ increase) while the decrease in CJ mRNA levels is reported as IC50 (compound concentration having 50% response in CJ decrease).
(§8) Additional studies were carried out for a larger panel of genes using the protocol provided above. The junction between flanking upstream and downstream exons was used to design canonical junction qPCR assays. At least one of the forward primer, reverse primer or the CY5-labeled 5′ nuclease probe (with 3′ quencher such as ZEN/Iowa Black FQ) was designed to overlap with the exon junction to capture the CJ mRNA transcript. BLAST was used to confirm the specificity of the probeset and parameters such as melting temperature, GC content, amplicon size, and primer dimer formation are considered during their design. Data for the decrease in CJ mRNA levels for three exemplary genes (HTT, SMN2, and Target C) analyzed in this panel are reported as IC50 (compound concentration having 50% response in CJ decrease).

[3] = test system: Target C CJ mRNA transcript; assay: Gene panel canonical junction qPCR assay, Target C; conditions: 50% response in CJ decrease, read-out: Target C IC50 (decrease in CJ mRNA levels)
Experimental: as §1, §3, §4, §7, §8

HTT CJ mRNA transcript = assay: Gene panel canonical junction qPCR assay, HTT; conditions: 50% response in CJ decrease, read-out: HTT IC50 (decrease in CJ mRNA levels)
Experimental: as §1, §3, §4, §7, §8

SMILES | AC50 [1] [µM] | AC50 [2] [µM] | IC50 (SMN2 CJ mRNA transcript) [µM] | IC50 [3] [µM] | IC50 (HTT CJ mRNA transcript) [µM]
Cn1cc2cc(-n3cnc4sc(N5CCNCC5)nc4c3=O)ccc2n1 [Compound 219, 6-(2-methyl-2H-indazol-5-yl)-2-(piperazin-1-yl)thiazolo[5,4-d]pyrimidin-7(6H)-one] | > 10 | > 10 | > 10 | > 10 | > 10
CN1CCN(c2nc3c(=O)n(-c4ccc5nn(C)cc5c4)cnc3s2)CC1 [Compound 181, 6-(2-methyl-2H-indazol-5-yl)-2-(4-methylpiperazin-1-yl)thiazolo[5,4-d]pyrimidin-7(6H)-one] | > 10 | > 10 | > 10 | – | > 10
Cc1cn2cc(-n3cnc4sc(N5CCNCC5)nc4c3=O)cc(C(F)(F)F)c2n1 [Compound 223, 6-(2-methyl-8-(trifluoromethyl)imidazo[1,2-a]pyridin-6-yl)-2-(piperazin-1-yl)thiazolo[5,4-d]pyrimidin-7(6H)-one] | > 10 | > 10 | > 10 | > 10 | > 10
Cc1cn2cc(-n3cnc4sc(N5CCNCC5)nc4c3=O)cc(F)c2n1 [Compound 220, 6-(8-fluoro-2-methylimidazo[1,2-a]pyridin-6-yl)-2-(piperazin-1-yl)thiazolo[5,4-d]pyrimidin-7(6H)-one] | > 10 | > 10 | > 10 | 1 to 10 | > 10
Cc1cc(-c2nc3c(=O)n(C4CCN(C)CC4)cnc3s2)cc2cn(C)nc12 [Compound 179, 2-(2,7-dimethyl-2H-indazol-5-yl)-6-(1-methylpiperidin-4-yl)thiazolo[5,4-d]pyrimidin-7(6H)-one] | > 10 | > 10 | 0.1 to 1 | – | > 10
Cc1cc(-c2nc3c(=O)n(C4CC(C)(C)N(C=O)C(C)(C)C4)cnc3s2)cc2cn(C)nc12 [Compound 187, 4-(2-(2,7-dimethyl-2H-indazol-5-yl)-7-oxothiazolo[5,4-d]pyrimidin-6(7H)-yl)-2,2,6,6-tetramethylpiperidine-1-carbaldehyde] | 1 to 10 | > 10 | > 10 | – | 1 to 10
Cn1cc2cc(-n3cnc4sc(N5CCN(Cc6ccc(F)cc6)CC5)nc4c3=O)ccc2n1 [Compound 185, 2-(4-(4-fluorobenzyl)piperazin-1-yl)-6-(2-methyl-2H-indazol-5-yl)thiazolo[5,4-d]pyrimidin-7(6H)-one] | > 10 | > 10 | > 10 | – | > 10
CN1CCC(Nc2nc3c(=O)n(-c4ccc5nn(C)cc5c4)cnc3s2)CC1 [Compound 189, 6-(2-methyl-2H-indazol-5-yl)-2-((1-methylpiperidin-4-yl)amino)thiazolo[5,4-d]pyrimidin-7(6H)-one] | > 10 | > 10 | > 10 | > 10 | > 10
Cc1cn2cc(-n3cnc4sc(N5CCN(C)CC5)nc4c3=O)cc(C(F)(F)F)c2n1 [Compound 224, 6-(2-methyl-8-(trifluoromethyl)imidazo[1,2-a]pyridin-6-yl)-2-(4-methylpiperazin-1-yl)thiazolo[5,4-d]pyrimidin-7(6H)-one] | > 10 | > 10 | – | – | –
CN1CC=C(c2nc3c(=O)n(-c4ccc5nn(C)cc5c4)cnc3s2)CC1 [Compound 188, 2-(1-methyl-1,2,3,6-tetrahydropyridin-4-yl)-6-(2-methyl-2H-indazol-5-yl)thiazolo[5,4-d]pyrimidin-7(6H)-one] | > 10 | > 10 | > 10 | 1 to 10 | > 10
CN1CCC(c2nc3c(=O)n(-c4ccc5nn(C)cc5c4)cnc3s2)CC1 [Compound 176, 6-(2-methyl-2H-indazol-5-yl)-2-(1-methylpiperidin-4-yl)thiazolo[5,4-d]pyrimidin-7(6H)-one] | > 10 | > 10 | > 10 | > 10 | > 10
Cc1cn2cc(-c3nc4c(=O)n(C5CCN(C)CC5)cnc4s3)cc(F)c2n1 [Compound 186, 2-(8-fluoro-2-methylimidazo[1,2-a]pyridin-6-yl)-6-(1-methylpiperidin-4-yl)thiazolo[5,4-d]pyrimidin-7(6H)-one] | 1 to 10 | 1 to 10 | 1 to 10 | – | 1 to 10
Cc1cn2cc(-n3cnc4sc(N5CCN(C)CC5)nc4c3=O)cc(F)c2n1 [Compound 221, 6-(8-fluoro-2-methylimidazo[1,2-a]pyridin-6-yl)-2-(4-methylpiperazin-1-yl)thiazolo[5,4-d]pyrimidin-7(6H)-one] | > 10 | > 10 | > 10 | > 10 | > 10
CN1CCC(N(C)c2nc3c(=O)n(-c4ccc5nn(C)cc5c4)cnc3s2)CC1 [Compound 190, 2-(methyl(1-methylpiperidin-4-yl)amino)-6-(2-methyl-2H-indazol-5-yl)thiazolo[5,4-d]pyrimidin-7(6H)-one] | > 10 | > 10 | > 10 | > 10 | > 10
